The results in this text go back to a melting point compilation (Tetko et al.; mined from patent text by program, amines drawn as free bases though some values may be those of a salt).

Residues, ends and D or L forms follow the SMILES beside them. *: point of attachment. Cbz = O=C(OCc1ccccc1)*

One may read the melting point as the temperature of the solid-liquid transition. Turning to `CCOC(=O)c1cc(Cl)c(-n2nc(CC)c(C(N)=O)c2N)c(Cl)c1`, the melting point fell in the range of 194 to 196 °C.
As to `OC(c1ccc(Cl)cc1)(c1ccc(Cl)cc1)c1nnc[nH]1`, the melting point lay within 233 to 234 °C.
`N#Cc1ccc(C=O)c(-c2ccco2)c1` returned a melting point of 125 °C.
`O=[N+]([O-])c1cc(F)cc(I)c1O`: the melting point is 40 °C.
`O=P(O)(O)C(O)(Cn1ccnc1)P(=O)(O)O` returned a melting point of 235 to 241 °C.
Consider `COC(=O)C(Cc1ccccc1)NC(=O)C(Cc1ccccc1)NC(=O)CNC(=O)OCc1ccccc1` (stereo not drawn) (Cbz-Gly-Phe-Phe-OMe; configuration not given here), for which the melting point is 122 to 124 °C.
`Cc1ccc2c(=O)c(OC(=O)c3ccccc3)cn(C)c2c1` returned a melting point of 200 to 202 °C.
The figure for `CC1Nc2ccccc2C(=O)N1CCN1CCC(c2noc3cc(F)ccc23)CC1` (stereo not drawn) is 164 to 165 °C; for `Cc1oc2cc(C=O)ccc2c1C` it is 73 to 74 °C.
`CC(C)(C)c1ccc(C=CC2=CC(c3ccc(C(C)(C)C)cc3)N(c3ccccc3)N2)cc1` (stereo not drawn) registered a melting point of 188 to 192 °C.
Regarding `CCOCCn1c(CN2CCN(CCNc3nc4cnccc4[nH]3)CC2)nc2cccnc21`, the melting point came to 124 °C.
In the case of `O=C(OCC1OC(n2cnc3c(NCC(c4ccccc4)c4ccccc4)ncnc32)C(OC(=O)c2ccccc2)C1OC(=O)c1ccccc1)c1ccccc1` (stereo not drawn), the melting point lay within 60 to 75 °C.
`N#CC(C#N)=C(NCC(=O)O)Nc1cc(Cl)cc(Cl)c1` came in with a melting point of 103 °C.
`CN(C)CC(c1ccccc1)c1nnc2n1-c1ccc(Cl)cc1C(c1ccccc1)=NC2` (stereo not drawn) registered a melting point of 168 to 170 °C.
In the case of `Cc1cccc(-c2sc(N)nc2-c2ccnc(-c3ccc(N4CCOCC4)cc3)c2)n1`, the melting point is 246 °C.
Take `CCOc1cc([C@@H](CCN(O)C=O)N2C(=O)c3cccc(NC(C)=O)c3C2=O)ccc1OC`: the melting point was in the range of 96 to 98 °C.
Consider `CCCc1c(OCCCOc2ccc(Cl)c3ccccc23)ccc2c1OC(CCC(=O)O)(CCC(=O)O)CC2=O`, for which the melting point is 170 to 171 °C.
For the molecule `Cc1ccc(S(N)(=O)=O)cc1Br`, the melting point came to 156 °C.
Molecule `CCOc1c(C=NOC)c(=O)n(C)c(=O)n1C` gave a melting point of 108 to 109 °C.
The figure for `CCc1nc2nccc(C)c2[nH]1` is 117 to 119 °C.
The figure for `CC1(C)Nc2ccccc2-n2cnc(-c3nc(C4CC4)no3)c21` is 175 to 179 °C; for `Brc1cccc2c(-c3ccccc3)coc12` it is 69.5 to 71.5 °C.
In the case of `N#Cc1cc(C(F)(F)F)nn1-c1ccc(NC(=O)c2ccncc2F)cc1`, the melting point was in the range of 161 to 162 °C.
Take `CC(C)(C)NCC(O)c1ccc(OCc2ccccc2)cn1` (stereo not drawn): the melting point was 69 to 73 °C.
Molecule `COc1ccc2c(c1)C(=O)C(C)(C)C(=O)N2` displayed a melting point of 169 to 170 °C.
Molecule `c1cc(-c2ccc(-n3c4ccccc4c4ccccc43)cc2)cc(-n2c3ccccc3c3ccccc32)c1` gave a melting point of 244 to 246 °C.
In the case of `CC(C)=C1C(=O)N(c2ccc(N)cc2)C(=O)/C1=C(\C)c1cc(C)oc1C`, the melting point fell in the range of 209 to 211 °C.
`COc1ccc2cc(C(C)NC(=O)NO)ccc2c1` (stereo not drawn): the melting point lay within 174 to 176 °C.
`CCOC(=Cc1ccc(-c2cccc(N(C)C(=O)NCCc3ccccc3)c2)cc1)C(=O)O` displayed a melting point of 70 °C.
For the molecule `O=[N+]([O-])c1cc(Cl)c(I)c(Cl)c1`, the melting point was 147 to 150 °C.
The figure for `O=C(O)C1(CCCCCC(O)CCCCCC2(C(=O)O)CC2)CC1` is 87 to 91 °C; for `CCOC(=O)C(=NOCCBr)c1csc(NC=O)n1` it is 95 to 98 °C; for `Cc1c(NC(=O)c2ccc(-c3ccc(Cl)s3)cc2)ccc2cc(CN3CCCC3)cnc12` it is 210 to 211 °C.
`O=C(OCc1ccccc1)c1cc(OCc2ccccc2)c(OCc2ccccc2)cn1` yielded a melting point of 117 °C.
On to `CSc1ccc(-c2coc3ccc(-c4nnc(N)o4)cc23)cc1Cl`, for which the melting point is 232 to 233 °C.
Next, `CC(=O)N1CCC(=O)C(C(c2ccc(C)cc2)c2ccc(C)cc2)C1` (stereo not drawn): 142 to 144 °C; `Cc1cc(COP(N)(=O)N(CCCl)CCCl)ccc1[N+](=O)[O-]` (stereo not drawn): 64 to 66 °C; `C#Cc1ccnc(-c2cc(N)c(C#C[Si](C)(C)C)cc2[N+](=O)[O-])c1`: 145 to 150 °C.
For `CNc1nc(C(C)c2ccc(-c3ccccc3)c(F)c2)c(C=O)s1` (stereo not drawn), the melting point is 126 to 128 °C.
The molecule `COC(=O)c1cc(C(=O)OC)cc(N2C(=O)C=CC2=O)c1` had a melting point of 186 to 187 °C.
The figure for `CCOC(=O)CN(C)C(=S)CCc1nc2c(F)c(F)cc(F)c2s1` is 83 to 85 °C; for `C=CCN(CC=C)NC(=S)Nc1ccc(F)cc1` it is 73 to 74 °C; for `COc1cc(OC)cc(-c2ncn(C)c2-c2cc(F)c(F)c(F)c2)c1` it is 159 to 160 °C.
Consider `N#Cc1c(N2CCCC2)cccc1[N+](=O)[O-]`, for which the melting point lay in the range of 111 to 113 °C.
`CC(=O)Nc1ccc(C(=O)O)c(OC(C)=O)c1` displayed a melting point of 191 to 193 °C.
For the molecule `Nc1ccccc1S(=O)(=O)c1cc(C(=O)O)ccc1Cl`, the melting point was in the range of 235 to 238 °C.
The molecule `CC(=O)Nc1ccc2c(c1)C(=O)C1(CC1)O2` yielded a melting point of 211 to 212 °C.
The figure for `CC(=O)OCC(O)(COC(C)=O)c1ccc(F)cc1F` is 70.5 to 71.5 °C.
Regarding `COc1cc(-n2nc(C(F)(F)F)cc2-c2ccc(S(C)(=O)=O)cc2)ccc1Br`, the melting point fell in the range of 156 to 157 °C.
Molecule `CCCN1c2nc(-c3cn[nH]c3)ccc2NC(=O)c2cccnc21` registered a melting point of 291 to 292 °C.
The figure for `Cc1ccccc1-c1cccc(Nc2ccccc2)c1C#N` is 125 to 126 °C.
Next, `c1ccc2cc(OCc3ccc4ccccc4n3)ccc2c1`: 100 to 102 °C; `CN(C)C(=O)[C@@H]1C[C@H](C(=O)OC(C)(C)C)N[C@@H]1c1ccccc1` (racemic): 97 °C.
For `O=P(O)(O)CCCCCCCCCCCC(F)(F)C(F)(F)C(F)(F)C(F)(F)F`, the melting point fell in the range of 93 to 96 °C.
`CC#CN1CCN(C(=O)c2ccccc2)CC1` showed a melting point of 94 to 95 °C.
With `COc1ccc(-c2ccnc(N3CCN(c4c(C)c(C)c5c(c4C)CC(C)(C)O5)CC3)n2)cc1`, the melting point was 156 to 159 °C.
`O=S(c1[nH]c(Br)c(Br)c1-c1ccc(Cl)cc1)C(F)(F)F` (stereo not drawn) yielded a melting point of 166 to 168 °C.
For the molecule `C=CCOC(=O)CCc1cc(C(C)(C)C)c(O)c(C(C)(C)C)c1`, the melting point was 40 °C.
Next, `COc1ccc(-n2cc(CCC(=O)NS(C)(=O)=O)c(-c3ccc(Cl)c(F)c3)n2)cc1Cl`: 211 to 212 °C; `COc1cccc2c(Nc3ccccc3C)c(C(=O)C(C)C)cnc12`: 116 to 118 °C; `Cc1cn(COCOC(=O)c2ccccc2)c(=O)[nH]c1=O`: 141 to 143 °C.
For the molecule `COc1ccc(-c2nc3cccc(C(N)=O)c3[nH]2)cc1`, the melting point is 261 to 263 °C.
As to `Oc1ccc2c(CCCCN3CC=C(c4cccs4)CC3)c[nH]c2c1`, the melting point stood at 181 °C.
Molecule `Cc1cc2ccccc2c(C2CC(=O)C=C(O)C2)c1C` (stereo not drawn) had a melting point of 242 °C.
The figure for `CC12C=CCC1C1CCC3CC(=O)CCC3C1CC2` (stereo not drawn) is 51 to 54 °C.
In turn, `OCc1ccc(Br)c(CO)c1` displayed a melting point of 106 to 108 °C.
In turn, `CC(COC(=O)NC(=O)C(c1ccccc1)c1ccccc1)c1ccccc1` (racemic) registered a melting point of 131 °C.
As for `O=c1c2ccccc2nnn1OS(=O)(=O)c1ccccc1`, the melting point lay in the range of 132 to 134 °C.
`CC(=O)NNC(COCc1cc(C)cc(C)c1)C1c2ccccc2CCc2ccccc21` (stereo not drawn) showed a melting point of 109 to 111 °C.
`O=C(CCCC(=O)Oc1ccc(C(=O)OCc2ccccc2)cc1)Oc1ccc(C(=O)OCc2ccccc2)cc1` returned a melting point of 93 to 94 °C.
Turning to `CCOc1cc(N)c(Cl)cc1C(=O)[NH+]([O-])CC1CN(Cc2ccccc2Cl)CCO1` (stereo not drawn), the melting point fell in the range of 154 to 157 °C.
Molecule `COC(CC1OCC(Br)([N+](=O)[O-])CO1)OC` (stereo not drawn) yielded a melting point of 95 to 97 °C.
`CC1(C)COc2ccc(OS(C)(=O)=O)cc21` showed a melting point of 75 to 77 °C.
Consider `Cc1ccc(-c2ccc3c(c2)C=C(C(=O)Nc2ccc(CSc4ccccc4)cc2)CCO3)cc1`, for which the melting point was 176 to 177 °C.
Molecule `c1ccc(-c2noc3ccccc23)c(CNCc2ccccc2-c2noc3ccccc23)c1` returned a melting point of 138 °C.
Consider `COc1cc(Nc2nccc(-c3ccc(NCCN(C)C)nc3)n2)cc(OC)c1OC`, for which the melting point is 110 to 111 °C.
Consider `CCCOc1c(OCc2ccccc2)cc(C2CCC(=O)O2)cc1S(=O)(=O)CCC` (stereo not drawn), for which the melting point was in the range of 95 to 96 °C.
`CC(C)(C)OC(=O)N1CC=C(c2cnc3c(c2)N(Cc2cc(Cl)ccc2Cl)CCN3)CC1` returned a melting point of 92 to 95 °C.
For the molecule `O=S(=O)(c1ccc(Cl)c2ccccc12)N1CC2CCC(CC2)C1`, the melting point fell in the range of 134 to 137 °C.
Next, `COc1ccc(CCN2CCc3cc(OCc4ccccc4)c(OC)cc3C2)cc1`: 88 to 89 °C.
The figure for `N#CC(C#N)=CN(N=C(C#N)C#N)c1cccc(F)c1` is 134 to 135 °C; for `CC(C)=NNc1nc(Cl)c(-c2c(F)cc(F)cc2F)c(NC(C)C(F)(F)F)n1` (stereo not drawn) it is 157 to 159 °C; for `Cc1c(CC(=O)NCCCO[N+](=O)[O-])cc(-c2ccc(S(C)(=O)=O)cc2)n1-c1ccc(F)cc1` it is 127 °C.
`Cc1noc2cc3c(cc12)C1(CO3)C(=O)N(Cc2cccnc2)c2ccccc21` (stereo not drawn): the melting point fell in the range of 176 to 177 °C.
`CCOC(=O)c1cc(Cl)c(Cl)c(-c2cc(C)no2)c1C` registered a melting point of 86 to 88 °C.
Next, `Clc1cccc(Nc2ncnc3[nH]c(CN4CCOCC4)cc23)c1`: 244 to 246 °C; `C(=C(c1ccccc1)c1ccccc1)C1CCN(CCCCCCCCCCc2cccnc2)CC1`: 63 to 65 °C; `Cc1noc(=O)c2ccc(NC(=O)C(=O)CC3(c4cccc(C(F)(F)F)c4F)CC3)cc12`: 117 to 118 °C.
